Measured values: patent US11541050B2, “Pyrimidine derivatives for the treatment of viral infections” (JANSSEN SCIENCES IRELAND UC, priority 2011, dated 2023)

Columns and labels:
Assay type in all cases: cell-based
Design in all cases: unit not given here
[1] = target: T1, human TLR8 (wild type sequence) (Homo sapiens, UniProt Q9NR97); assay: TLR8 cellular NFκB-luc reporter assay, wild type TLR8; settings: lowest effective concentration, wild type TLR8 (compounds 1-73)
T1 construct: expressed in transfected cells; host or cells: HEK293
T1 sequence (Q9NR97 27-1041): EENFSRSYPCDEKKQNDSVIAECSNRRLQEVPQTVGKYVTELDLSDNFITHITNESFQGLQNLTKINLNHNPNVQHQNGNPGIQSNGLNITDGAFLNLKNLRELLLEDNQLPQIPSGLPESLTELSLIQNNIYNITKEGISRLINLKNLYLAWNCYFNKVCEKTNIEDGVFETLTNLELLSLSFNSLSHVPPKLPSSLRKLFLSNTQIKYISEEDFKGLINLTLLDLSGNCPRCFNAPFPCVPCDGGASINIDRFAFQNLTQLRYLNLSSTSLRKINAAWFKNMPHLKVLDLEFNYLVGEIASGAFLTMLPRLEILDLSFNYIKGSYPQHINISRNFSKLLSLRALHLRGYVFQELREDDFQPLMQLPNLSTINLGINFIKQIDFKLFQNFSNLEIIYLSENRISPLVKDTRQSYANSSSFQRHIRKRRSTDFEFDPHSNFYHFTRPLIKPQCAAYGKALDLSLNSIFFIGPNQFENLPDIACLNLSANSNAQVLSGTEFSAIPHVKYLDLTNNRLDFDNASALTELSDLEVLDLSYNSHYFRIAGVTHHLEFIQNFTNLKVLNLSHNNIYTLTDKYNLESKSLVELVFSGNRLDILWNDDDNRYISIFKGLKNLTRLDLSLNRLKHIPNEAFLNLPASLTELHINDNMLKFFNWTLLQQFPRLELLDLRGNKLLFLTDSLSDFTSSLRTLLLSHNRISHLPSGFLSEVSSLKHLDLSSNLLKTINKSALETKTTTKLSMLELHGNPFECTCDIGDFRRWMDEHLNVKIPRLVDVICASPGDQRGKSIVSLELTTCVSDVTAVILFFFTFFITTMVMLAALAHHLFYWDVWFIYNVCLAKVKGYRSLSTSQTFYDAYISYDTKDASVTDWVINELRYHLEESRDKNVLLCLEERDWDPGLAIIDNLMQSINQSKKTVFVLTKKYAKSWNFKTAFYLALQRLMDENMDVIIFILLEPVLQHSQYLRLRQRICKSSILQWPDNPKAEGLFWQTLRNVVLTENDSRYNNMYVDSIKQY
Outline: (§1)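 First, HEK293 cells were co-transfected with TLR7 or TLR8 (native or LRR2-deletion) and NFκB-luc and cultured 48 h. Next, cells were incubated with compound for 6 h at 37 °C. Finally, luciferase was read; LEC came from dose-response curves run in quadruplicate.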

[2] = tested on: human TLR8 mutant sequence comprising a deletion in the second leucine-rich repeat; assay: TLR8 cellular NFκB-luc reporter assay, mutant TLR8 with deletion in the second leucine-rich repeat; settings: lowest effective concentration
Experimental: (§2) The ability of compounds to activate human TLR7 and/or TLR8 was assessed in a cellular reporter assay using HEK293 cells transiently transfected with a TLR7 or TLR8 expression vector and NFκB-luc reporter construct. In one instance the TLR expression construct expresses the respective wild type sequence or a mutant sequence comprising a deletion in the second leucine-rich repeat of the TLR.
(§3) Briefly, HEK293 cells were grown in culture medium (DMEM supplemented with 10% FCS and 2 mM Glutamine). For transfection of cells in 10 cm dishes, cells were detached with Trypsin-EDTA, transfected with a mix of CMV-TLR7 or TLR8 plasmid (750 ng), NFκB-luc plasmid (375 ng) and a transfection reagent and incubated for 48 hours at 37° C. in a humidified 5% CO2 atmosphere. […] Thirty microliters of cells were then dispensed into each well in 384-well plates, where 10 μL of compound in 4% DMSO was already present. Following 6 hours incubation at 37° C., 5% CO2, the luciferase activity was determined by adding 15 μl of Steady Lite Plus substrate (Perkin Elmer) to each well and readout performed on a ViewLux ultraHTS microplate imager (Perkin Elmer). Dose response curves were generated from measurements performed in quadruplicates.

[3] = tested on: human TLR7 mutant sequence comprising a deletion in the second leucine-rich repeat; assay: TLR7 cellular NFκB-luc reporter assay, mutant TLR7 with deletion in the second leucine-rich repeat; settings: lowest effective concentration
Experimental: as §2, §3

[4] = target: T2, human TLR7 (wild type sequence) (Homo sapiens, UniProt Q9NYK1); assay: TLR7 cellular NFκB-luc reporter assay, wild type TLR7; settings: lowest effective concentration, wild type TLR7
T2 construct: expressed in transfected cells; host or cells: HEK293
T2 sequence (Q9NYK1 27-1049): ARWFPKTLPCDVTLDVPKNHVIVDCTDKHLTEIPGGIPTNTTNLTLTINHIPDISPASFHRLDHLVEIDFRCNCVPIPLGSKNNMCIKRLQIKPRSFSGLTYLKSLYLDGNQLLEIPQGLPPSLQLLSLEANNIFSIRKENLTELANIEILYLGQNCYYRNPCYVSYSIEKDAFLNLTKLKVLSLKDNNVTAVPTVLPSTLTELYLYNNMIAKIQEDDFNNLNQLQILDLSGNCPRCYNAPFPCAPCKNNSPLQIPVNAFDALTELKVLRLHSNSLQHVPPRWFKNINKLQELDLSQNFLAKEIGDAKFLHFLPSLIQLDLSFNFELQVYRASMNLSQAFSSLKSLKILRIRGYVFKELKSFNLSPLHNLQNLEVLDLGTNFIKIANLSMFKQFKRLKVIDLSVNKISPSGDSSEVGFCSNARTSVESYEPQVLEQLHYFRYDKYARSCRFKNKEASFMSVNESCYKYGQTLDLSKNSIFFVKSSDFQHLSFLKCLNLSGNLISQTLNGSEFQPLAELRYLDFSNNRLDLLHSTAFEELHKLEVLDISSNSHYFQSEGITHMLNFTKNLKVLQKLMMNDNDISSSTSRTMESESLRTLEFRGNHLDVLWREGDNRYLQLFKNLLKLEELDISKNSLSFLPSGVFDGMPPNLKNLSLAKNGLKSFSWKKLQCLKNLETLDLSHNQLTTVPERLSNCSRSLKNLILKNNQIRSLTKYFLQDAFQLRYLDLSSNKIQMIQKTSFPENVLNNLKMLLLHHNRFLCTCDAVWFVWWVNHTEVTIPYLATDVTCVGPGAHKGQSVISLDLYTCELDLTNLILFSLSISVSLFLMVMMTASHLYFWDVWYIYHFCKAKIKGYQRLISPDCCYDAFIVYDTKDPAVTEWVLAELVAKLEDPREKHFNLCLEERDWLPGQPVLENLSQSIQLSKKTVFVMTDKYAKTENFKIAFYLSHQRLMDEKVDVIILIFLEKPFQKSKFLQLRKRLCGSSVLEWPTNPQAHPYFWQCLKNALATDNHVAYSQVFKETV
Outline: as §1

[5] = TLR8 mutant with deletion in second leucine-rich repeat
[6] = TLR7 mutant with deletion in second leucine-rich repeat

| SMILES | TLR8-wt_LEC [1] | TLR8-dIRR2_LEC [2, 5] | TLR7-dIRR2_LEC [3, 6] | TLR7-wt_LEC [4] | TLR8-dIRR2_LEC [2] | TLR7-dIRR2_LEC [3] |
| --- | --- | --- | --- | --- | --- | --- |
| CCCCNc1nc(N)ncc1OCC1CC1 [Compound 39] | 14.41 | 7.10 | 3.01 |  |  |  |
| CCCCCCCCOc1cnc(N)nc1NCCCC [Compound 40] | >25 | >25 | 2.69 |  |  |  |
| CCCCNc1nc(N)ncc1OCCN1CCOCC1 [Compound 269] |  |  |  | 24.550 | 9.750 | 8.280 |
| CCC[C@@H](CCO)Nc1nc(N)ncc1OCc1cccc(C(N)=O)n1 [Compound 270] |  |  |  | 0.109 | 0.006 | 0.131 |
| CCC[C@@H](CCO)Nc1nc(N)ncc1OCc1cccnc1 [Compound 271] |  |  |  | 0.261 | 0.088 | 0.511 |
| CCCC[C@@H](CCO)Nc1nc(N)ncc1OCc1cccnc1 [Compound 272] |  |  |  | 0.207 | 0.084 | 1.110 |
| CCCC[C@@H](CO)Nc1nc(N)ncc1OCc1cccnc1 [Compound 274] |  |  |  | 1.140 | 0.357 | 0.303 |
| CCCCNc1nc(N)ncc1OCCOCC(F)(F)F [Compound 276] |  |  |  | 3.260 | 0.652 | 0.707 |
| CCC[C@@H](CO)Nc1nc(N)ncc1OCc1cccnn1 [Compound 277] |  |  |  | 1.180 | 0.135 | 0.438 |
| CCCC[C@@H](CO)Nc1nc(N)ncc1OCc1cccnn1 [Compound 278] |  |  |  | 0.880 | 0.136 | 0.270 |
| CCC[C@@H](CCO)Nc1nc(N)ncc1OCc1cccnn1 [Compound 279] |  |  |  | 0.724 | 0.034 | 1.100 |
| CCCC[C@@H](CCO)Nc1nc(N)ncc1OCc1cccnn1 [Compound 280] |  |  |  | 0.392 | 0.038 | 1.450 |
| CCCCNc1nc(N)ncc1OCc1ccc(CO)cc1 [Compound 281] |  |  |  | 0.472 | 0.191 | 1.630 |
| CCCC[C@@H](CCO)Nc1nc(N)ncc1OCc1cccc(C(N)=O)n1 [Compound 282] |  |  |  | 0.133 | 0.005 | 0.502 |
| CCC[C@@H](CCO)Nc1cc(O[C@@H]2CCc3c(Cl)ccnc32)nc(N)n1 [Compound 283] |  |  |  | 17.180 | 4.350 | 8.320 |
| CCC[C@@H](CCO)Nc1nc(N)ncc1O[C@H]1CCc2c(Cl)ccnc21 [Compound 284] |  |  |  | 9.910 | 2.150 | 10.300 |

| SMILES | TLR8-wt_LEC [1] | TLR8-dIRR2_LEC [2, 5] | TLR7-dIRR2_LEC [3, 6] | TLR7-wt_LEC [4] | TLR8-dIRR2_LEC [2] | TLR7-dIRR2_LEC [3] |
| --- | --- | --- | --- | --- | --- | --- |
| CCC[C@@H](CCO)Nc1nc(N)ncc1OCc1cn(-c2ccccc2)nn1 [Compound 285] |  |  |  | 0.266 | 0.036 | 0.530 |
| CCC[C@@H](CCO)Nc1nc(N)nc(C)c1OCc1nccc2ccccc12 [Compound 286] |  |  |  | 0.620 | 0.128 | 7.660 |
| CCCCNc1nc(N)ncc1OC[C@H](C)OC [Compound 287] |  |  |  | 15.530 | 3.560 | 5.380 |
| CCCCNc1nc(N)ncc1OCC(CC)OC (stereo not drawn) [Compound 288] |  |  |  | >25 | 14.890 | 10.200 |
| CCCCNc1nc(N)ncc1OCCOCC(C)C [Compound 289] |  |  |  | 0.875 | 0.647 | 0.930 |
| CCCCNc1nc(N)ncc1OCC(C)O (stereo not drawn) [Compound 290] |  |  |  | >25 | 12.460 | 9.110 |
| CCCC[C@@H](CCO)Nc1nc(N)ncc1OCc1ccncc1 [Compound 291] |  |  |  | 0.120 | 0.106 | 0.407 |
| CCC[C@@H](CCO)Nc1nc(N)ncc1OCc1ccccn1 [Compound 293] |  |  |  | 0.197 | 0.088 | 0.530 |
| CCCC[C@@H](CCO)Nc1nc(N)ncc1OCc1ccccn1 [Compound 294] |  |  |  | 0.133 | 0.042 | 0.521 |
| CCCC[C@@H](CCO)Nc1nc(N)ncc1OCc1cccc(C)n1 [Compound 295] |  |  |  | 0.047 | 0.034 | 0.430 |
| CCCC[C@@H](CCO)Nc1nc(N)ncc1OCCOC(C)C [Compound 296] |  |  |  | 0.664 | 0.310 | 2.540 |
| CCCC[C@@H](CCO)Nc1nc(N)ncc1OCc1nnn[nH]1 [Compound 297] |  |  |  | 2.810 | 2.540 | >25 |
| CCCC[C@@H](CCO)Nc1nc(N)ncc1OCc1c[nH]nn1 [Compound 298] |  |  |  | 0.394 | 0.058 | 2.840 |
| CCCC[C@@H](C[C@@H](C)O)Nc1nc(N)ncc1OC [Compound 300] |  |  |  | 1.740 | 0.475 | 0.720 |
| CCC[C@@H](CCO)Nc1nc(N)ncc1OCCOC(C)C [Compound 301] |  |  |  | 1.170 | 0.534 | 2.640 |
| CCC[C@@H](CCO)Nc1nc(N)ncc1OCc1ccncc1 [Compound 302] |  |  |  | 0.385 | 0.070 | 0.487 |
